Source: patent US10272056B2, “Treatment for mitochondrial diseases” (The George Washington University a Congressionally …, priority 2015, dated 2019)
Entries after “also recorded” stand apart in the source; their conditions may differ.

Assays:
[1] = test system: E17.5 hippocampal neurons; assay: Cellular viability of neurons exposed to NaBt; assay type: cell-based; settings: 2 mM NaBt
[2] = test system: neuronal cells; assay: Mitochondrial membrane potential (TMRM dye, confocal microscopy and flow cytometry); assay type: cell-based; settings: NaBt-treated cells
Experimental: (§1) FIG. 9A-9C are graphs and images from microscopy showing that NaBt enhances mitochondrial bioenergetics. (A) Flow cytometric analysis of Δψm; *p<0.001. (B) ATP levels in live cells using a Mg^2+-based assay; *p<0.001. (C) Electron microscopy of mitochondria in control and NaBt-treated cells; scale bar=200 nm.
(§2) NaBt increases mitochondrial membrane potential (Δψm) and ATP levels. The MTR-based data raised the question: could NaBt also enhance mitochondrial bioenergetics? Δψm was assessed by live cell confocal microscopy and flow cytometry using the TMRM dye, which accumulates in the mitochondrial matrix in a Δψm-dependent fashion. A 1.5-fold increase in Δψm in NaBt-treated cells was observed (FIG. 9A). To test whether enhanced Δψm led to increased ATP output, ATP levels were monitored using the live cell Mg^2+-based ATP assay, which is compatible with the TMRM dye, allowing simultaneous recordings. A 1.6-fold increase in ATP levels in NaBt-treated cells was observed (FIG. 9B), in line with the MTR- and TMRM-based findings and the elongated mitochondrial morphology.

[3] = test system: neuronal cells; assay: Electron microscopy of mitochondria; assay type: cell-based; settings: NaBt-treated vs control cells
Experimental: as §1, §2

[4] = test system: PC12-ND6 cells; assay: ROS (superoxide anions) by MitoSOX live cell confocal microscopy; assay type: cell-based; settings: NaBt 5 mM, three days
Experimental: PC12-ND6 cells were grown in the absence or presence of NaBt (5 mM) for three days before being labeled with the MitoSox™ dye and the nuclear counterstain Hoechst 33342 and analyzed by live cell confocal imaging. Images are representative of three independent experiments. Scale bar represents 10 μm.
On the basis that increased ΔΨm could result in elevated ROS levels due to electron leakage through the mitochondrial electron transfer chain (ETC), the relative levels of superoxide anions (O2^−) were measured by live cell confocal microscopy using the redox-sensitive fluorogenic live-cell permeant dye MitoSOX™, as described in Uittenbogaard et al., 2010b.

[5] = test system: Tfam; assay: Quantitative immunoblot analysis of Tfam; assay type: cell-based; settings: NaBt treatment, PC12-ND6
Excerpt: FIG. 11A-11D are images from microscopy and graphs showing NaBt promotes mtDNA replication via the NRF-1/Tfam axis. (A) Confocal analysis of mtDNA foci; scale bar=5 (B) Quantitative analysis of mtDNA copy number by PCR; *p<0.001. (C, D) Quantitative immunoblot analysis of NRF-1 and Tfam; *p<0.001.
NaBt enhances mtDNA replication via the PGC1α-mediated NRF-1/Tfam axis. It was investigated whether NaBt enhanced mtDNA replication using the PicoGreen® dye to label mtDNA. PC12-ND6 cells were transfected with the mito-dsRed vector prior to NaBt treatment followed by PicoGreen® staining. […] To corroborate enhanced mitochondrial biogenesis, two key target genes of PGC1α were examined, the NRF-1 transcription factor and its direct target gene Tfam, both essential for mitochondrial biogenesis. […] The findings confirm the NaBt-mediated modulation of mitochondrial biogenesis and mtDNA replication in neuronal cells.

[6] = test system: E17.5 hippocampal neurons; assay: Neuronal stage 3 frequency with chloramphenicol and NaBt; assay type: cell-based
Excerpt: FIG. 16A-16I are images from microscopy and a graph showing that Pre-treatment of E17.5 hippocampal neurons with NaBt protects against chloramphenicol-induced loss of neuronal differentiation. (A-D) Confocal micrographs of E17.5 hippocampal neurons exposed to different concentrations of chloramphenicol at 2DIV and labeled with anti tubulin antibody (red) and nuclear counterstain DAPI (blue) at 3DIV. Scale bar represents 10 μm. (E-H) Confocal micrographs of E17.5 hippocampal neurons treated with NaBt (2 mM) at 1DIV prior to exposure to different concentrations of chloramphenicol at 2DIV and labeled with anti tubulin antibody (red) and nuclear counterstain DAPI (blue) at 3DIV. Scale bar represents 10 μm. (I) Graph of E17.5 β-III^+ hippocampal neurons at the neuronal stage 3. Mean±S.D. (n=250 cells; compared to untreated control *p=0.0001; compared to the corresponding non-NaBt treated sample **p=0.0001; compared to non-NaBt treated cells exposed to Cm at 30 μM‡p=0.007).
The consequences of chloramphenicol exposure on untreated or NaBt-treated E17.5 hippocampal neurons was examined. At 1DIV, dissociated E17.5 hippocampal neurons were switched to differentiation medium in the absence or presence of NaBt (2 mM) for 24 hours before being treated with increasing concentrations of chloramphenicol (0, 15, 30, and 60 μM) for 24 hours. At 3DIV, their phenotypic differentiation was examined by immunocytochemistry using an antibody against the pan-neuronal marker β-III tubulin and quantified the percent of neurons having reached the developmental stage 3 for each experimental condition. As expected, only half of untreated neurons reached stage 3 in the absence of NaBt, while more than 90% of NaBt-treated neurons achieved such degree of differentiation, thereby forming an elaborate neuritic network (FIGS. 16A, E, and I).

[7] = test system: MELAS fibroblasts; assay: Mitochondrial mass, morphology and networking (MTG live cell confocal analysis); assay type: cell-based, human; settings: three-day exposure; NaBt 2.5 mM, TBN 1.5 mM, AN9 300 μM
Excerpt: FIG. 17A-17C are images from microscopy and graphs showing that butyrates rescue the mitochondrial phenotype in MELAS fibroblasts. (A) Confocal analysis of healthy and MELAS fibroblasts treated as indicated and labeled with the MTG dye; scale bar=10 (B) Analysis of the mitochondrial mass; n=3 (60 cells per experiment; ^‡p<0.05, unpaired T-test *p<0.05, paired T-test). (C) Analysis of Δψm (^‡p<0.05, unpaired T-test; *p<0.05, paired T-test).
(§3) Butyrates rescue the mitochondrial mass, morphology, networking, membrane potential, and cellular ATP levels in MELAS fibroblasts. Skin fibroblasts from two MELAS patients and from a healthy subject as a control were used. Dose-dependent analyses of butyrates to determine their best concentrations for eliciting an optimal mitochondrial response without cellular toxicity was performed. Healthy and MELAS fibroblasts were treated with PBS, NaBt (2.5 mM), TBN (1.5 mM), or AN9 (300 μM) for three days before labeling with the MTG dye for live cell confocal analysis.
as §3, with “networking, and” for “networking,”, “potential” for “potential, and cellular ATP levels”, “butyrates was performed” for “butyrates”, “toxicity.” for “toxicity was performed.”

[8] = test system: mouse models of neurodegenerative diseases and ischemia/stroke; settings: in vivo; cited from earlier work

CCCC(=O)[O-].[Na+] [NaBt, sodium butyrate]
cellular viability [1]: without affecting cellular viability | increase in Δψm [2]: 1.5 fold | mitochondrial micro-architecture [3]: increased numbers of elongated cristae | ROS production [4]: does not trigger ROS generation; also recorded: failed to generate ROS production | Tfam expression [5]: induced Tfam expression on day 2 | frequency of advanced neuronal stage with NaBt pre-treatment ([6]; NaBt 2 mM prior to chloramphenicol up to 60 μM): sustained the frequency of advanced neuronal stage | percent of neurons reaching stage 3 ([6]; NaBt 2 mM, no chloramphenicol, 3DIV): more than 90% | mitochondrial mass, morphology, and networking [7]: restored normal mitochondrial mass, morphology, and networking | effects in mouse models [8]: stimulates neurogenesis, enhances synaptic plasticity and memory, while preventing neuronal death
